Data set [1] deals with primary and metastatic cancer. As to conditions: et al., cited from earlier work.
Data set [2] relates to stage IV NSCLC. As to conditions: cited from earlier work.
Data set [3] deals with stage IV NSCLC. The data set can be described thus: Thoracoscopic lung suffusion, phase I clinical trial. The class given is in vivo, human. An excerpt: The term “suffusion” has been defined as the slow diffuse permeation of the tissues by an injectate during arterial or venous occlusion. Unlike methods for arterial infusion or isolated perfusion, those for suffusion require neither permanent occlusion nor recirculation. The technique involves isolating chemotherapy into the lung by interventional radiologic control of the pulmonary artery and endoscopic control of the pulmonary veins. The suffusion method was first described in a canine model in 2002. A minimally invasive approach and its short-term potential were established using a non-toxic tracer compound. Rapid permeation of the lung and 75% of tracer remaining isolated the lung for 30 minutes was observed.
One phase I clinical trial on four stage IV NSCLC patients has been conducted.

For data set [4], the system named is primary and metastatic cancer. As to conditions: et al., cited from earlier work. This is another data set of the same source.
Setting [5] is: Schroder, 2002, 4 cases of metastatic sarcoma, following metastectomy.
Where [6] appears, read: Hendriks, 2004, 16 cases of resectable pulmonary metastases, followed by metastectomy.
Setting [7] is: Burt, 2000, 8 cases of metastatic sarcoma.

Here are results for 4 compounds from patent publication US10737072B2, “Control catheters and methods for pulmonary suffusion and related therapies” (SUFFUSION TECHNOLOGIES LLC, priority 2012, dated 2020).

Molecules are shown by their SMILES. Like-named read-outs stand apart in the source and are kept apart here.

In the case of `N.N.[Cl][Pt][Cl]` [Cisplatin], in data set [1] (Ratto, 1996, 6 cases of metastatic sarcoma), the “Interstitial and alveolar edema (number of cases)” value is “(2) cases”. For the same compound, in data set [1] (setting [5]), the “disease-free after 1 year” value was 75% disease-; the “localized pulmonary edema (number of cases)” value was “(4), reduced cases”; the “reduced pulmonary function at 3 weeks (number of cases)” value was “weeks (3) cases”. Also, the “reduction in tumor volume” value in the data set with stage IV NSCLC [2] (Demmy, et al., 2009, 4 cases of stage IV NSCLC, with systemic chemotherapy) is on record as 14%-96%. Further, in the data set with stage IV NSCLC [2] (four stage IV NSCLC patients, systemic chemotherapy began within 2 weeks of the suffusion), the Tumor volume reduced was 14% to 96%. Besides, the “patients who could not tolerate suffusion” value with stage IV NSCLC [3] (total of ten patients treated by suffusion (unpublished data)) was “One of 10”. For the same compound, in the data set on stage IV NSCLC [3] (unpublished data, growth of tumor in other parts of the body despite systemic chemotherapy), the “patients with evaluable disease showing control or reduction of the main tumor in the suffused lung” value is 4 of 5. For the same compound, the complete response in data set [4] (So, 2004, 3 cases of locally advanced NSCLC, and carinal resection) is 100% complete.

In the case of `N[C@@H](Cc1ccc(N(CCCl)CCCl)cc1)C(=O)O` [Melphalan], in data set [1] (setting [6]), the “Chemical pneumonitis (number of cases)” value is “pneumonitis (2), cases”; the “localized pulmonary edema (number of cases)” value is given as “(3), pneumonia cases”; the “pneumonia (number of cases)” value was “(1), cases”; the “pneumothorax (number of cases)” value is recorded as “pneumothorax (1) cases”.

As for `CO[C@@]12[C@H](COC(N)=O)C3=C(C(=O)C(C)=C(N)C3=O)N1C[C@@H]1N[C@@H]12` [Mitomycin C], the “tumor volume reduced in” value in data set [4] (Neyazaki, 1969, 27 cases) is on record as 52%.

With `COc1cccc2c1C(=O)c1c(O)c3c(c(O)c1C2=O)C[C@@](O)(C(=O)CO)C[C@@H]3O[C@H]1C[C@H](N)[C@H](O)[C@H](C)O1` [Doxorubicin], in data set [1] (setting [7]), the “Pulmonary fibrosis (number of cases)” value is “fibrosis (1), cases”; the “reduced pulmonary function (number of cases)” value was “function (7) cases”; the response is on record as 0% response.
